Results taken from patent publication US20090137411A1, “Methods and biochips for detecting small molecule compounds” (priority 2004, published 2009).

Test system: anti-drug mouse monoclonal antibodies
Assay: Biochip competitive immunoassay for prohibited substances in urine
Assay type: binding
Conditions: competitive immunoassay on chip

Compound	Cutoff value (the 50% inhibitory concentration) [µg/L]
CC(N)Cc1ccccc1 (stereo not shown) [Amphetamine, amphetamine]	5.2
C[C@H]1O[C@@H](O[C@H]2[C@@H](O)C[C@H](O[C@H]3[C@@H](O)C[C@H](O[C@H]4CC[C@@]5(C)[C@H](CC[C@@H]6[C@@H]5C[C@@H](O)[C@]5(C)[C@@H](C7=CC(=O)OC7)CC[C@]65O)C4)O[C@@H]3C)O[C@@H]2C)C[C@H](O)[C@@H]1O [Digoxin, digoxin]	2.8
CN[C@@H](C)Cc1ccccc1 [Methamphetamine]	4.0
C[C@]12CC[C@H]3[C@@H](CCC4=CC(=O)CC[C@@]43C)[C@@H]1CC[C@@H]2O [Testosterone]	0.6
gentamicin	2.5

Test system: anti-morphine antibodies
Assay: Qualitative screening of athlete urines on chip (morphine)
Assay type: binding, mouse
Conditions: athlete urine samples containing the substance

Compound	Cross-reactivity with the anti-morphine antibodies
COc1ccc2c3c1O[C@H]1[C@@H](O)CC[C@H]4[C@@H](C2)N(C)CC[C@@]341 [dihydrocodeine]	Cross-reactivity with the anti-morphine antibodies
CCOC(=O)C1(c2ccccc2)CCN(C)CC1 [pethidine]	Cross-reactivity with the anti-morphine antibodies
